The structures appear in SMILES notation.

This series is described as follows: Human HepG2 cell viability assay in 384 well format. The class given is toxicity, cell-based. On the set-up: dose 125 nL, time 70.5 hour; cytotoxicity at 70.5 h: concentration not given beside the values. The following applies: HepG2 cells, read-out: Inhibition.
On to `CCC1CN(CC(=O)N2CCCC2)CCN1CCOC` (centres undefined), for which the cytotoxicity at 70.5 h is -10.3%.

For the compound `Cc1c(Br)cccc1CNC1(CCO)CCOCC1`, the cytotoxicity at 70.5 h was -1.58%.

For the compound `Cc1ccc(N2CC[C@H]3C[C@@H](C(=O)N4CCOCC4)O[C@H]3C2)nn1`, the cytotoxicity at 70.5 h is -0.412%.

For `O=C(O)c1cnc2c(Br)cccc2c1O`, the cytotoxicity at 70.5 h is -5.88%.

Turning to `O=C(Nc1ccccc1F)c1nn(C2CCS(=O)(=O)C2)c2c1CCCC2` (centres undefined), the cytotoxicity at 70.5 h was -7.2%.

On to `CCCOc1cccc(C(=O)N2CCCC(n3cncn3)C2)c1` (centres undefined), for which the cytotoxicity at 70.5 h is -13.7%.

`CN1CCN(C2COC3(CCN(CC4CC4)CC3)C2)CC1` (centres undefined): the cytotoxicity at 70.5 h was 0.151%.

Take `Cc1nc(CN2CCN(Cc3ccoc3)Cc3cccnc32)cs1`: the cytotoxicity at 70.5 h worked out at 32.4%.

As to `CC(C)(C)C(=O)NCCC(=O)NS(=O)(=O)c1cccnc1`, the cytotoxicity at 70.5 h is 9.3%.

For the compound `O=C(NC[C@H]1OC[C@@H](NC2CCC(F)(F)CC2)[C@@H]1O)Nc1ccccc1`, the cytotoxicity at 70.5 h worked out at 0.362%.

On to `CC(=O)N1CCc2[nH]cnc2C12CCN(CC1CCOC1)CC2` (centres undefined), for which the cytotoxicity at 70.5 h is -5.5%.

Regarding `N#Cc1ccc(OCC(O)CN2CCc3cncnc3C2)cc1` (centres undefined), the cytotoxicity at 70.5 h came out at 2.9%.

Take `Cc1[nH]c2c(F)cccc2c1CC(=O)N1CCCC(N)CC1` (centres undefined): the cytotoxicity at 70.5 h was 14.1%.

Consider `COc1ccc(C(N)=O)cc1NCc1ncc(C(C)(C)C)o1`, for which the cytotoxicity at 70.5 h was -81.1%.

Consider `COCCOc1ncccc1C(=O)N1CCCC1Cn1cc(C)cn1` (centres undefined), for which the cytotoxicity at 70.5 h is -12%.

Regarding `CC(C)N1CC(c2ccnc(Nc3nccs3)n2)C1`, the cytotoxicity at 70.5 h is -10.4%.

With `Cc1cccc(CN2CC3(CCN(Cc4ccoc4)CC3)OCC2=O)n1`, the cytotoxicity at 70.5 h turned out to be 17.7%.

On to `O=C(Cc1ccc(F)cc1)N1CCN(CC(O)c2ccccc2)CC1` (centres undefined), for which the cytotoxicity at 70.5 h was -4.51%.

As for `O=C(NCCc1ccccc1)N1CCC(C2OCCO2)CC1`, the cytotoxicity at 70.5 h was -4.29%.

`Cc1cccc(Nc2noc3c2CN(C(=O)c2ccn(C)n2)CC3)c1C`: the cytotoxicity at 70.5 h was determined as 3.73%.

On to `O=C(NCC1CC1)[C@H]1CN(Cc2nccs2)C[C@H]2OCC[C@@H]12`, for which the cytotoxicity at 70.5 h is -9.38%.

As to `O=C(NCC1CCCN(C(=O)NCCc2ccccc2)C1)c1ccco1` (centres undefined), the cytotoxicity at 70.5 h was -0.863%.

For the compound `CCn1nc2c(cc1=O)CN(c1ncnc3sccc13)CC2`, the cytotoxicity at 70.5 h is -11.4%.

Turning to `O=C(c1ccccc1-n1cccn1)N1CCC(Nc2cccnn2)CC1`, the cytotoxicity at 70.5 h was -8.8%.

For the compound `Cc1cn2c(=O)c(-c3ccnc(N(C)C4CCCCC4)n3)cnc2s1`, the cytotoxicity at 70.5 h was -3.7%.

Take `CC(CCc1ccc(O)cc1)NC1CCN(C(=O)C(C)C)CC1` (centres undefined): the cytotoxicity at 70.5 h was -11.4%.

For `Cc1nc(CNC(C)c2cccc(S(=O)(=O)N(C)C)c2)no1` (centres undefined), the cytotoxicity at 70.5 h was 16.5%.

Consider `Cc1cccc(N2CCC(N3CCC4(CN(C)C(=O)O4)C3)CC2)c1C` (centres undefined), for which the cytotoxicity at 70.5 h is -9.4%.

For the compound `O=C1N(CC2CC2)CCC12CCN(Cc1ccoc1)CC2`, the cytotoxicity at 70.5 h was -8.87%.

For `O=C(NCC1CC1)c1cc(C2CC2)nc2onc(C3CCCNC3)c12` (centres undefined), the cytotoxicity at 70.5 h was -7.5%.

Consider `CS(=O)(=O)NCC1CCCN(C(=O)COCC2CC2)C1` (centres undefined), for which the cytotoxicity at 70.5 h was -22.4%.

With `Cc1c(NC(=O)c2ncn[nH]2)cccc1C(=O)NC(C)(C)C`, the cytotoxicity at 70.5 h was -12.5%.

Turning to `CCc1ncc(C(=O)N(C)Cc2cc(-c3ccncc3)no2)cn1`, the cytotoxicity at 70.5 h came out at 35.7%.

With `Cc1ccc(C(=O)N2C[C@@H]3CCCO[C@@H]3[C@H](N(C)Cc3ccco3)C2)o1`, the cytotoxicity at 70.5 h amounted to 28.7%.

Consider `COCCN1CCn2cc(CNC(=O)c3cnn(C)c3)nc2C1`, for which the cytotoxicity at 70.5 h was -38%.

Turning to `COc1ccc(C(=O)CN(C2=NCCCCC2)c2ccccc2)cc1`, the cytotoxicity at 70.5 h is -25.8%.

Turning to `N#Cc1ccc(NC2CCN(c3ncccn3)CC2)cc1C(F)(F)F`, the cytotoxicity at 70.5 h came out at 5.96%.

Consider `COCCn1ccnc1C1CCCN(C(=O)c2ccncc2F)C1` (centres undefined), for which the cytotoxicity at 70.5 h worked out at 11%.

In the case of `O=C1NC2(Nc3ncccc31)C(=O)Nc1c2ccc(Cl)c1F` (centres undefined), the cytotoxicity at 70.5 h was -6.95%.

Source of the values: ChEMBL document CHEMBL3507680, “University of Dundee, Gates Library screen for HepG2 cell viability”.
